Assay results taken from PubChem BioAssay (NCI).
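GI50 = concentration required for 50% inhibition of growth. TGI is the concentration that stops growth completely.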

Key:
Assay in all cases: inhibition of tumour cell growth, NCI panel, 384-well format; in the data active = GI50 below about 0.43 µM; inactive = the rest
TK-10 renal = test system: TK-10 renal
T-47D breast = test system: T-47D breast
NCI-H23 lung = test system: NCI-H23 lung
SNB-19 CNS = test system: SNB-19 CNS
NCI/ADR-RES ovarian = test system: NCI/ADR-RES ovarian
NCI-H226 lung = test system: NCI-H226 lung
OVCAR-4 ovarian = test system: OVCAR-4 ovarian
MCF7 breast = test system: MCF7 breast
MDA-MB-435 melanoma = test system: MDA-MB-435 melanoma
SR leukemia = test system: SR leukemia
SW-620 colon = test system: SW-620 colon
HCC-2998 colon = test system: HCC-2998 colon
HT29 colon = test system: HT29 colon
IGROV1 ovarian = test system: IGROV1 ovarian
SNB-75 CNS = test system: SNB-75 CNS
A549 NSCLC = test system: A549 NSCLC
UACC-62 melanoma = test system: UACC-62 melanoma
ACHN renal = test system: ACHN renal
OVCAR-3 ovarian = test system: OVCAR-3 ovarian
U251 glioblastoma = test system: U251 glioblastoma
EKVX NSCLC = test system: EKVX NSCLC
PC-3 prostate = test system: PC-3 prostate
NCI-H322M lung = test system: NCI-H322M lung
HOP-92 NSCLC = test system: HOP-92 NSCLC
LOX IMVI melanoma = test system: LOX IMVI melanoma
HOP-62 NSCLC = test system: HOP-62 NSCLC
MALME-3M melanoma = test system: MALME-3M melanoma
OVCAR-5 ovarian = test system: OVCAR-5 ovarian
HS 578T breast = test system: HS 578T breast
UACC-257 melanoma = test system: UACC-257 melanoma

C=CC(=O)N1CCN(c2nc(=O)n(-c3c(C)ccnc3C(C)C)c3nc(-c4c(O)cccc4F)c(F)cc23)[C@@H](C)C1
35.1 µM: TGI (HS 578T breast)
18.9 µM: TGI (SR leukemia)
0.592 µM: TGI (NCI-H23 lung)
> 68.2 µM: TGI (ACHN renal)
52.6 µM: TGI (U251 glioblastoma)
29.6 µM: TGI (HCC-2998 colon)
31.8 µM: TGI (LOX IMVI melanoma)
> 94.4 µM: TGI (PC-3 prostate)
> 100 µM: TGI (TK-10 renal) | TGI (T-47D breast) | TGI (SNB-19 CNS) | TGI (NCI/ADR-RES ovarian) | TGI (OVCAR-4 ovarian) | TGI (MCF7 breast) | TGI (MDA-MB-435 melanoma) | TGI (SW-620 colon) | TGI (HT29 colon) | TGI (UACC-62 melanoma) | TGI (EKVX NSCLC) | TGI (NCI-H322M lung) | TGI (HOP-92 NSCLC) | TGI (OVCAR-5 ovarian) | TGI (UACC-257 melanoma)
50.8 µM: TGI (OVCAR-3 ovarian)
97.5 µM: TGI (SNB-75 CNS)
71 µM: TGI (IGROV1 ovarian)
inactive: GI50 (T-47D breast) > 81.3 µM | GI50 (SNB-19 CNS) 53.9 µM | GI50 (NCI/ADR-RES ovarian) > 100 µM | GI50 (NCI-H226 lung) 20.5 µM | GI50 (OVCAR-4 ovarian) 43.8 µM | GI50 (MCF7 breast) 36.9 µM | GI50 (MDA-MB-435 melanoma) 62.4 µM | GI50 (SR leukemia) 6.68 µM | GI50 (SW-620 colon) 36.8 µM | GI50 (HCC-2998 colon) 15 µM | GI50 (HT29 colon) 33.2 µM | GI50 (IGROV1 ovarian) 27 µM | GI50 (SNB-75 CNS) 54.2 µM | GI50 (A549 NSCLC) 32.5 µM | GI50 (UACC-62 melanoma) 43.5 µM | GI50 (ACHN renal) 30.2 µM | GI50 (OVCAR-3 ovarian) 22 µM | GI50 (U251 glioblastoma) 22 µM | GI50 (EKVX NSCLC) 37.1 µM | GI50 (PC-3 prostate) 35.9 µM | GI50 (NCI-H322M lung) 44.6 µM | GI50 (HOP-92 NSCLC) 48.6 µM | GI50 (LOX IMVI melanoma) 16.6 µM | GI50 (MALME-3M melanoma) 14.7 µM | GI50 (OVCAR-5 ovarian) > 100 µM | GI50 (HS 578T breast) 13.9 µM | GI50 (UACC-257 melanoma) 37.1 µM
> 85.6 µM: TGI (A549 NSCLC)
active: GI50 (HOP-62 NSCLC) 0.0543 µM
26 µM: TGI (HOP-62 NSCLC)
35.3 µM: TGI (MALME-3M melanoma)
52.2 µM: TGI (NCI-H226 lung)
